Values quoted from earlier work in patent US20200368163A1, “EN[…]-DISPERSIBLE CANNABINOID NANOPARTICLE COMPOSITIONS, METHODS AND SYSTEMS” (The Trustees of Princeton University, priority 2019, published 2020).

SMILES: C=C(C)[C@@H]1CCC(C)=C[C@H]1c1c(O)cc(CCCCC)cc1O [CBD, Cannabidiol]
- log P: ~6
